Results from patent US8076338B2, “Kinase modulators and methods of use” (Exelixis, Inc., priority 2004, dated 2011).
Like-named read-outs stand apart in the source and are kept apart here.

Legend:
p70S6K = p70S6K (Homo sapiens, UniProt P23443); test: Luciferase-coupled chemiluminescence kinase assay (ATP consumption); type: biochemical
Experimental: (§1) One measure of inhibition is Ki. […] The Ki for a compound is determined from the IC50 based on three assumptions. First, only one compound molecule binds to the enzyme and there is no cooperativity. […] Third, the enzymatic rate of the enzyme-inhibitor complex is zero. The rate data (i.e. compound concentration) are fitted to the equation: […]
(§2) Luciferase-Coupled Chemiluminescence Assay Protocol
(§3) Kinase activity is measured as the percent of ATP consumed following the kinase reaction using luciferase-luciferin-coupled chemiluminescence. Reactions were conducted in 384-well white, medium binding microtiter plates (Greiner). Kinase reactions were initiated by combining test compounds, ATP and kinase in a 20 uL volume. The reaction mixture was incubated at ambient temperature for 3 hrs. For p70S6K and/or AktK, 2.5-5 nM of the enzyme was pre-incubated with compound in 20 mM Tris pH 7.5, 10 mM MgCl2, 0.03% TX-100, and 1 mM DTT for 30 minutes at room temperature. Following the kinase reaction, a 20 μL aliquot of luciferase-luciferin mix was added and the chemiluminescence signal measured using a Victor^2 plate reader (Perkin Elmer). The luciferase-luciferin mix contained 50 mM HEPES, pH 7.8, 67 mM oxalic acid (pH 7.8), 5 (or 50) mM DTT, 0.4% Triton X-100, 0.25 mg/mL coenzyme A, 63 μM AMP, 28 μg/1 mL luciferin and 40,000 units/mL luciferase. Total ATP consumption was limited to 25-60% and the IC50 values correlate well with those determined by radiometric assays.

AktK = AktK (Homo sapiens, UniProt P31749); test: as above; type: biochemical; details: read-out: AKT-1 IC50
Experimental: as §1, §2, §3

Sequence of p70S6K (P23443 whole entry): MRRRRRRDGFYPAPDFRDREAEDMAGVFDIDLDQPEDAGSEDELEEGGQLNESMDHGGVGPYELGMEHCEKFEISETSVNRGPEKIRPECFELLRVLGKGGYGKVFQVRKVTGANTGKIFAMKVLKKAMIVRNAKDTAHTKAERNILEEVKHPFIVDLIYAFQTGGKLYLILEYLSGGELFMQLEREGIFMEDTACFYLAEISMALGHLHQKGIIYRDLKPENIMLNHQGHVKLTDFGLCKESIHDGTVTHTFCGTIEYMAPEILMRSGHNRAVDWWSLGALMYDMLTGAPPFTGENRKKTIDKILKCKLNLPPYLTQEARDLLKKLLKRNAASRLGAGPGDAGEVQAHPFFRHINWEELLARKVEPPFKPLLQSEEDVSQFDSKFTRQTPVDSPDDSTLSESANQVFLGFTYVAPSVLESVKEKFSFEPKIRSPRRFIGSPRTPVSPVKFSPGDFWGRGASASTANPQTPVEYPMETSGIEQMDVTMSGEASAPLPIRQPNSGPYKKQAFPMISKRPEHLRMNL
Sequence of AktK (P31749 whole entry): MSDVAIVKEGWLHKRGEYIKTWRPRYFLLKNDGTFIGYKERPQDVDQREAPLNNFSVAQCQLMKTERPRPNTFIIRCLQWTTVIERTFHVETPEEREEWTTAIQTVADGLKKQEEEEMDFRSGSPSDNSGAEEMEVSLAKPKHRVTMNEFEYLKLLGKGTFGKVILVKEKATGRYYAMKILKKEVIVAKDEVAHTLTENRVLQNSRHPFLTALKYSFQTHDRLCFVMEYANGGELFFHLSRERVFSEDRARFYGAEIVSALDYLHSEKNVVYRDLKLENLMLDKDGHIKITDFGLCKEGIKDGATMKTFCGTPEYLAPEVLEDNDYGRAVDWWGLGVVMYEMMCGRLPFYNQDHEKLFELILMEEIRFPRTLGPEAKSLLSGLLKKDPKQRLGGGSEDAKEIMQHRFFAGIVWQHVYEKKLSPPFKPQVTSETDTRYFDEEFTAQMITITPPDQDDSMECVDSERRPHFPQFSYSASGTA

Row | Compound | IC50 (p70S6K; Table 1, class symbols per key) [nM] | IC50 (AktK; Table 1, class symbols per key) [nM] | IC50 (p70S6K) [nM] | IC50 (AktK) [nM]
1 | 2-[4-(3-bromo-1H-pyrazolo[3,4-d]pyrimidin-4-yl)piperazin-1-yl]-N,N-diethylpyrimidin-4-amine [Entry 140] | 100 to 1000 | 1000 to 10000 |  | 
2 | 3-[4-(3-bromo-1H-pyrazolo[3,4-d]pyrimidin-4-yl)piperazin-1-yl]-5-(butyloxy)-2-methyl-N-(2-pyrrolidin-1-ylethyl)aniline [Entry 208] | < 100 | < 100 |  | 
3 | 3-[4-(3-bromo-1H-pyrazolo[3,4-d]pyrimidin-4-yl)piperazin-1-yl]-5-{[(difluoromethyl)oxy]meth-yl}-2-methyl-N-(2-pyrrolidin-1-ylethyl)aniline [Entry 254] | < 100 | < 100 |  | 
4 | 3-bromo-4-(4-{4-methyl-2′-[(2-pyrrolidin-1-ylethyl)oxy]biphenyl-3-yl}piperazin-1-yl)-1H-pyrazolo[3,4-d]pyrimidine [Entry 269] | < 100 | < 100 |  | 
5 | 3-bromo-4-(4-{4-methyl-3′-[(2-pyrrolidin-1-yl-ethyl)oxy]biphenyl-3-yl}piperazin-1-yl)-1H-pyrazolo[3,4-d]pyrimidine [Entry 290] |  |  | < 100 | < 100
6 | 3-bromo-4-{4-[5-{[2,3-difluoro-2-(fluorometh-yl)propyl]oxy}-2-methyl-3-(3-pyrrolidin-1-ylpropyl)phenyl]piperazin-1-yl}-1H-pyrazolo[3,4-d]pyrimidine [Entry 239] | < 100 | < 100 |  | 
7 | 4-[4-(5-chloro-2-methylphenyl)piperazin-1-yl]-1H-pyrazolo[3,4-d]pyrimidin-6-amine [Entry 156] | 1000 to 10000 | ≥ 10000 |  | 
8 | 4-[4-(5-chloro-2-methylphenyl)piperazin-1-yl]-3-(2-methylpropyl)-1H-pyrazolo[3,4-d]pyrimidine [Entry 355] |  |  | < 100 | 1000 to 10000
9 | 4-[4-(5-chloro-2-methylphenyl)piperazin-1-yl]-3-(3-pyrrolidin-1-ylpropyl)-1H-pyrazolo[3,4-d]pyrimidine [Entry 400] |  |  | 1000 to 10000 | 1000 to 10000
10 | 6-(4-phenylpiperazin-1-yl)-9H-purine [Example 1] | 1000 to 10000 | 1000 to 10000 |  | 
11 | CCc1n[nH]c2ncnc(N3CCN(c4cc(Cl)cc(OCCN5CCCCC5)c4C)CC3)c12 [Entry 17, 4-(4-{5-chloro-2-methyl-3-[(2-piperidin-1-ylethyl)oxy]phenyl}piperazin-1-yl)-3-ethyl-1H-pyrazolo[3,4-d]pyrimidine] | < 100 | 1000 to 10000 |  | 
12 | Cc1c(CCCN2CCOCC2)cc(Cl)cc1N1CCN(c2ncnc3[nH]nc(Br)c23)CC1 [Entry 18, 3-bromo-4-{4-[5-chloro-2-methyl-3-(3-morpholin-4-ylpropyl)phenyl]piperazin-1-yl}-1H-pyrazolo[3,4-d]pyrimidine] | < 100 | 100 to 1000 |  | 
13 | Cc1c(CCCN2CCN(C)CC2)cc(Cl)cc1N1CCN(c2ncnc3[nH]nc(Br)c23)CC1 [Entry 19, 3-bromo-4-(4-{5-chloro-2-methyl-3-[3-(4-methylpiperazin-1-yl)propyl]phenyl}piperazin-1-yl)-1H-pyrazolo[3,4-d]pyrimidine] | < 100 | < 100 |  | 
14 | Cc1c(OCCN2CCCCC2)cc(Cl)cc1N1CCN(c2ncnc3[nH]nc(Br)c23)CC1 [Entry 20, 3-bromo-4-(4-{5-chloro-2-methyl-3-[(2-piperidin-1-ylethyl)oxy]phenyl}piperazin-1-yl)-1H-pyrazolo[3,4-d]pyrimidine] | < 100 | 100 to 1000 |  | 
15 | CCc1n[nH]c2ncnc(N3CCN(c4cc(Cl)cc(OCCN5CCN(CC)CC5)c4C)CC3)c12 [Entry 25, 4-[4-(5-chloro-3-{[2-(4-ethylpiperazin-1-yl)ethyl]oxy}-2-methylphenyl)piperazin-1-yl]-3-ethyl-1H-pyrazolo[3,4-d]pyrimidine] | < 100 | 1000 to 10000 |  | 
16 | CCc1n[nH]c2ncnc(N3CCN(c4cc(Cl)cc(OCCCN5CCOCC5)c4C)CC3)c12 [Entry 26, 4-(4-{5-chloro-2-methyl-3-[(3-morpholin-4-ylpropyl)oxy]phenyl}piperazin-1-yl)-3-ethyl-1H-pyrazolo[3,4-d]pyrimidine] | < 100 | 1000 to 10000 |  | 
17 | Cc1c(CCCN2CCCCC2)cc(Cl)cc1N1CCN(c2ncnc3[nH]nc(Br)c23)CC1 [Entry 27, 3-bromo-4-{4-[5-chloro-2-methyl-3-(3-piperidin-1-ylpropyl)phenyl]piperazin-1-yl}-1H-pyrazolo[3,4-d]pyrimidine] | < 100 | < 100 |  | 
18 | CCN(CC)CCNc1cc(Cl)cc(N2CCN(c3ncnc4[nH]nc(Br)c34)CC2)c1C [Entry 28, N′-{3-[4-(3-bromo-1H-pyrazolo[3,4-d]pyrimidin-4-yl)piperazin-1-yl]-5-chloro-2-methylphenyl}-N,N-diethylethane-1,2-diamine] | < 100 | < 100 |  | 
19 | Cc1c(NCCN2CCCC2)cc(Cl)cc1N1CCN(c2ncnc3[nH]nc(Br)c23)CC1 [Entry 29, 3-[4-(3-bromo-1H-pyrazolo[3,4-d]pyrimidin-4-yl)piperazin-1-yl]-5-chloro-2-methyl-N-(2-pyrrolidin-1-ylethyl)aniline] | < 100 | < 100 |  | 
20 | CCc1n[nH]c2ncnc(N3CCN(c4cc(Cl)cc(OCCN5CCN(C)CC5)c4C)CC3)c12 [Entry 30, 4-[4-(5-chloro-2-methyl-3-{[2-(4-methylpiperazin-1-yl)ethyl]oxy}phenyl)piperazin-1-yl]-3-ethyl-1H-pyrazolo[3,4-d]pyrimidine] | < 100 | 100 to 1000 |  | 
21 | CCc1n[nH]c2ncnc(N3CCN(c4cc(Cl)cc(OCC5CCN(C)CC5)c4C)CC3)c12 [Entry 31, 4-[4-(5-chloro-2-methyl-3-{[(1-methylpiperidin-4-yl)methyl]oxy}phenyl)piperazin-1-yl]-3-ethyl-1H-pyrazolo[3,4-d]pyrimidine] | < 100 | 100 to 1000 |  | 
22 | CCc1n[nH]c2ncnc(N3CCN(c4cccc(OCCN(CC)CC)c4C)CC3)c12 [Entry 32, N,N-diethyl-2-({3-[4-(3-ethyl-1H-pyrazolo[3,4-d]pyrimidin-4-yl)piperazin-1-yl]-2-methylphenyl}oxy)ethanamine] | 100 to 1000 | 1000 to 10000 |  | 
23 | Cc1ccccc1N1CCN(c2ncnc3[nH]nc(C)c23)CC1 [Entry 319, 3-methyl-4-[4-(2-methylphenyl)piperazin-1-yl]-1H-pyrazolo[3,4-d]pyrimidine] |  |  | < 100 | 
24 | CC(C)=CCc1n[nH]c2ncnc(N3CCN(c4cc(Cl)ccc4C)CC3)c12 [Entry 347, 4-[4-(5-chloro-2-methylphenyl)piperazin-1-yl]-3-(3-methylbut-2-en-1-yl)-1H-pyrazolo[3,4-d]pyrimidine] |  |  | < 100 | 
25 | Cc1ccc(Cl)cc1N1CCN(c2ncnc3[nH]nc(-c4ccc(OCC5CCNCC5)cc4)c23)CC1 [Entry 359, 4-[4-(5-chloro-2-methylphenyl)piperazin-1-yl]-3-{4-[(piperidin-4-ylmethyl)oxy]phenyl}-1H-pyrazolo[3,4-d]pyrimidine] |  |  | 100 to 1000 | 
26 | CCc1n[nH]c2ncnc(N3CCN(c4cccc(Cl)c4)CC3C(=O)NC)c12 (stereo not drawn) [Entry 362, 4-(3-chlorophenyl)-1-(3-ethyl-1H-pyrazolo[3,4-d]pyrimidin-4-yl)-N-methylpiperazine-2-carboxamide] |  |  | 1000 to 10000 | 
